Patent publication US9540343B2 (Gilead Sciences, Inc., priority 2011, dated 2017)

Tested on: HIV-IIIb
Assay: Test A: Antiviral assay in MT4 cells
Assay type: cell-based, HIV-1
Conditions: Human immunodeficiency virus 1, IIIB, MT4, 120 h, read-out: % inhibition at 2 μM, percent inhibition of virus-induced cell killing, from dose response curve at 2 uM drug; MT-4 cells infected with HIV-IIIb, 5 days, CellTiter-Glo

Going from `NC(=O)c1cc(-c2cccnc2[C@H](Cc2cc(F)cc(F)c2)NC(=O)Cn2nc(C(F)(F)F)c3c2CCC3)ccc1F` [Example 134, (S)-5-(2-(2-(3,5-difluorophenyl)-1-(2-(3-(trifluoromethyl)-5,6-dihydrocyclopenta[c]pyrazol-1(4H)-yl)acetamido)ethyl)pyridin-3-yl)-2-fluorobenzamide] to `NC(=O)c1cc(-c2cccnc2[C@H](Cc2cc(F)cc(F)c2)NC(=O)Cn2nc(C(F)(F)F)c3c2CCCC3)ccc1F` [Example 589, (S)-5-(2-(2-(3,5-difluorophenyl)-1-(2-(3-(trifluoromethyl)-4,5,6,7-tetrahydro-1H-indazol-1-yl)acetamido)ethyl)pyridin-3-yl)-2-fluorobenzamide], the inhibition at 2 µM rises from 98% to 106%.

First: NC(=O)c1cc(-c2cccnc2[C@H](Cc2cc(F)cc(F)c2)NC(=O)Cn2nc(C(F)(F)F)c3c2C[C@H]2C[C@@H]32)ccc1F (single isomer, unassigned) [Example 173]
Second: NC(=O)c1cc(-c2cccnc2[C@H](Cc2cc(F)cc(F)c2)NC(=O)Cn2nc(C(F)(F)F)c3c2C[C@@H]2C[C@H]32)ccc1F (single isomer, unassigned) [Example 174]
The inhibition at 2 µM of the first is higher: 94% for the first, 71% for the second.

Compared with `NC(=O)c1cc(-c2cccnc2[C@H](Cc2cc(F)cc(F)c2)NC(=O)Cn2nc(C(F)(F)F)c3c2C(F)(F)C2CC32)ccc1F` (stereo partly drawn) [Example 181E, 5-(2-((1S)-1-(2-(5,5-difluoro-3-(trifluoromethyl)-3b,4,4a,5-tetrahydro-1H-cyclopropa[3,4]cyclopenta[1,2-c]pyrazol-1-yl)acetamido)-2-(3,5-difluorophenyl)ethyl)pyridin-3-yl)-2-fluorobenzamide], `NC(=O)c1cc(-c2cccnc2[C@H](Cc2cc(F)cc(F)c2)NC(=O)Cn2nc(C(F)(F)F)c3c2C2CC2C3(F)F)ccc1F` (stereo partly drawn) [Example 462J, 5-(2-((1S)-1-(2-(4,4-difluoro-3-(trifluoromethyl)-4,4-a,5,5a-tetrahydro-1H-cyclopropa[4,5]cyclopenta[1,2-c]pyrazol-1-yl)acetamido)-2-(3,5-difluorophenyl)ethyl)pyridin-3-yl)-2-fluorobenzamide] is lower in inhibition at 2 µM: 99% for the first, 2% for the second.

Compared with `NC(=O)c1cc(-c2cccnc2[C@H](Cc2cc(F)cc(F)c2)NC(=O)Cn2nc(C(F)F)c3c2C(F)(F)C2CC32)ccc1F` (stereo partly drawn) [Example 60H, 5-(2-((1S)-1-(2-(3-(difluoromethyl)-5,5-difluoro-3b,4,4a,5-tetrahydro-1H-cyclopropa[3,4]cyclopenta[1,2-c]pyrazol-1-yl)acetamido)-2-(3,5-difluorophenyl)ethyl)pyridin-3-yl)-2-fluorobenzamide], `NC(=O)c1cc(-c2cccnc2[C@H](Cc2cc(F)cc(F)c2)NC(=O)Cn2nc(C(F)F)c3c2C(F)(F)CCC3(F)F)ccc1F` [Example 344, (S)-5-(2-(1-(2-(3-(difluoromethyl)-4,4,7,7-tetrafluoro-4,5,6,7-tetrahydro-1H-indazol-1-yl)acetamido)-2-(3,5-difluorophenyl)ethyl)pyridin-3-yl)-2-fluorobenzamide] is lower in inhibition at 2 µM: 97% for the first, 93% for the second.

Going from `NC(=O)c1cccc(-c2cccnc2[C@H](Cc2cc(F)cc(F)c2)NC(=O)Cn2ccc3ccccc32)c1` [Example 426, (S)-3-(2-(1-(2-(1H-indol-1-yl)acetamido)-2-(3,5-difluorophenyl)ethyl)pyridin-3-yl)benzamide] to `NC(=O)c1cccc(-c2cccnc2[C@H](Cc2cc(F)cc(F)c2)NC(=O)Cc2c[nH]c3ccc(O)cc23)c1` [Example 39, (S)-3-(2-(2-(3,5-difluorophenyl)-1-(2-(5-hydroxy-1H-indol-3-yl)acetamido)ethyl)pyridin-3-yl)benzamide], the inhibition at 2 µM rises from 19% to 99%.

Going from `NC(=O)c1cc(-c2cccnc2[C@H](Cc2cc(F)cc(F)c2)NC(=O)Cn2ccc(C(F)(F)F)n2)ccc1F` [Example 455, (S)-5-(2-(2-(3,5-difluorophenyl)-1-(2-(3-(trifluoromethyl)-1H-pyrazol-1-yl)acetamido)ethyl)pyridin-3-yl)-2-fluorobenzamide] to `NC(=O)c1cc(-c2cccnc2[C@H](Cc2cc(F)cc(F)c2)NC(=O)Cn2nc(C(F)(F)F)c3ccccc32)ccc1F` [Example 250, (S)-5-(2-(2-(3,5-difluorophenyl)-1-(2-(3-(trifluoromethyl)-1H-indazol-1-yl)acetamido)ethyl)pyridin-3-yl)-2-fluorobenzamide], the inhibition at 2 µM rises from 4% to 19%.

Going from `O=C(Cc1c[nH]c2ccc(O)cc12)NC(Cc1cc(F)cc(F)c1)c1nccnc1-c1ccc(Cl)cc1` (stereo not shown) [Example 443I, N-(1-(3-(4-chlorophenyl)pyrazin-2-yl)-2-(3,5-difluorophenyl)ethyl)-2-(5-hydroxy-1H-indol-3-yl)acetamide] to `O=C(Cc1c[nH]c2ccc(O)cc12)N[C@@H](Cc1cc(F)cc(F)c1)c1ncncc1-c1ccc(Cl)cc1` [Example 316, (S)—N-(1-(5-(4-chlorophenyl)pyrimidin-4-yl)-2-(3,5-difluorophenyl)ethyl)-2-(5-hydroxy-1H-indol-3-yl)acetamide], the inhibition at 2 µM rises from 82% to 100%.

Going from `NC(=O)c1cc(-c2cccnc2[C@H](Cc2cc(F)cc(F)c2)NC(=O)Cn2nc(C(F)F)c3c2C(F)(F)C2CC32)ccc1F` (single isomer, unassigned) [Example 215] to `NC(=O)c1cc(-c2cccnc2[C@H](Cc2cc(F)cc(F)c2)NC(=O)Cn2nc(C(F)F)c(C3CC3)c2C(F)F)ccc1F` [Example 562, (S)-5-(2-(1-(2-(4-cyclopropyl-3,5-bis(difluoromethyl)-1H-pyrazol-1-yl)acetamido)-2-(3,5-difluorophenyl)ethyl)pyridin-3-yl)-2-fluorobenzamide], the inhibition at 2 µM falls from 80% to 42%.

Going from `O=C(Cc1c[nH]c2ccc(O)cc12)N[C@H](Cc1cc(F)cc(F)c1)c1ncncc1-c1ccc(Cl)cc1` [Example 284, (R)—N-(1-(5-(4-chlorophenyl)pyrimidin-4-yl)-2-(3,5-difluorophenyl)ethyl)-2-(5-hydroxy-1H-indol-3-yl)acetamide] to `NC(=O)c1cccc(-c2cccnc2[C@H](Cc2cc(F)cc(F)c2)NC(=O)Cc2c[nH]c3ccc(F)cc23)c1` [Example 50D, (S)-3-(2-(2-(3,5-difluorophenyl)-1-(2-(5-fluoro-1H-indol-3-yl)acetamido)ethyl)pyridin-3-yl)benzamide], the inhibition at 2 µM rises from 50% to 106%.

Compared with `NC(=O)c1cc(-c2cccnc2[C@H](Cc2cc(F)cc(F)c2)NC(=O)Cn2nc(C(F)(F)F)c3c2CCCC3(F)F)ccc1F` [Example 102D, (S)-5-(2-(1-(2-(4,4-difluoro-3-(trifluoromethyl)-4,5,6,7-tetrahydro-1H-indazol-1-yl)acetamido)-2-(3,5-difluorophenyl)ethyl)pyridin-3-yl)-2-fluorobenzamide], `NC(=O)c1cc(-c2cccnc2[C@H](Cc2cc(F)cc(F)c2)NC(=O)Cn2nc(C(F)(F)F)c3c2C(F)(F)CCC3)ccc1F` [Example 311B, (S)-5-(2-(1-(2-(7,7-difluoro-3-(trifluoromethyl)-4,5,6,7-tetrahydro-1H-indazol-1-yl)acetamido)-2-(3,5-difluorophenyl)ethyl)pyridin-3-yl)-2-fluorobenzamide] is higher in inhibition at 2 µM: 50% for the first, 97% for the second.

Going from `NC(=O)c1cc(-c2cccnc2[C@H](Cc2cc(F)cc(F)c2)NC(=O)Cn2nc(C(F)F)c3c2C2CCC3C2)ccc1F` (stereo partly drawn) [Example 83, (S)-5-(2-(2-(3,5-difluorophenyl)-1-(2-(4,5,6,7-tetrahydro-3-difluoromethyl-4,7-(methano)indazol-1-yl)acetamido)ethyl)pyridin-3-yl)-2-fluorobenzamide] to `NC(=O)c1cc(-c2cccnc2[C@H](Cc2cc(F)cc(F)c2)NC(=O)Cn2nc(C(F)(F)F)c3c2CC2CC32)ccc1F` (stereo partly drawn) [Example 122G, 5-(2-((1S)-2-(3,5-difluorophenyl)-1-(2-(3-(trifluoromethyl)-3b,4,4a,5-tetrahydro-1H-cyclopropa[3,4]cyclopenta[1,2-c]pyrazol-1-yl)acetamido)ethyl)pyridin-3-yl)-2-fluorobenzamide], the inhibition at 2 µM rises from 92% to 101%.

First: NC(=O)c1cc(-c2cccnc2[C@H](Cc2cc(F)cc(F)c2)NC(=O)Cn2nc(C(F)(F)F)c3c2CNCC3)ccc1F [Example 352, (S)-5-(2-(2-(3,5-difluorophenyl)-1-(2-(3-(trifluoromethyl)-4,5,6,7-tetrahydro-1H-pyrazolo[3,4-c]pyridin-1-yl)acetamido)ethyl)pyridin-3-yl)-2-fluorobenzamide]
Second: NC(=O)c1cc(-c2cccnc2[C@H](Cc2cc(F)cc(F)c2)NC(=O)Cn2nc(C(F)(F)F)c3c2CCOC3)ccc1F [Example 112B, (S)-5-(2-(2-(3,5-difluorophenyl)-1-(2-(3-(trifluoromethyl)-6,7-dihydropyrano[4,3-c]pyrazol-1(4H)-yl)acetamido)ethyl)pyridin-3-yl)-2-fluorobenzamide]
The inhibition at 2 µM of the first is lower: 16% for the first, 28% for the second.

Same assay, conditions: percent inhibition of virus-induced cell killing, from dose response curve at 2 uM drug; MT-4 cells infected with HIV-IIIb, 5 days, CellTiter-Glo

First: NC(=O)c1cc(-c2cccnc2[C@H](Cc2cc(F)cc(F)c2)NC(=O)Cn2nc(C(F)(F)F)c3c2C(F)(F)C2CC32)ccc1F (single isomer, unassigned) [Example 450]
Second: NC(=O)c1cc(-c2cccnc2[C@H](Cc2cc(F)cc(F)c2)NC(=O)Cn2nc(C(F)F)c3c2C(F)(F)C2CC32)ccc1F (single isomer, unassigned) [Example 216]
The “% inhibition at 2 μM” value of the first is lower: 33% for the first, 86% for the second.

First: NC(=O)c1cc(-c2cccnc2[C@H](Cc2cc(F)cc(F)c2)NC(=O)Cn2nc(C(F)(F)F)c3c2[C@@H]2C[C@@H]2C3)ccc1F [Example 187, 5-(2-((S)-2-(3,5-difluorophenyl)-1-(2-((4aR,5aR)-3-(trifluoromethyl)-4,4-a,5,5a-tetrahydro-1H-cyclopropa[4,5]cyclopenta[1,2-c]pyrazol-1-yl)acetamido)ethyl)pyridin-3-yl)-2-fluorobenzamide]
Second: NC(=O)c1cc(-c2cccnc2[C@H](Cc2cc(F)cc(F)c2)NC(=O)Cn2nc(C(F)(F)F)c3c2C(F)(F)C2CC32)ccc1F (single isomer, unassigned) [Example 449]
The “% inhibition at 2 μM” value of the first is lower: 31% for the first, 94% for the second.
